Laboratory results published in patent US7560476B2, “Microbicidal composition” (Rohm and Haas Company, priority 2003, dated 2009).
Read-outs that look alike come from different tables or passages of the source. Each block holds one compound with its values, some of them ahead of it.

What was measured:
S. aureus 6538 = assay: Synergy test, microtiter plate high resolution MIC assay, M9GY medium; type: cell-based, Staphylococcus aureus
Method: (§1) Synergism was determined by an industrially accepted method described by Kull, F. C.; Eisman, P. C.; Sylwestrowicz, H. D. and Mayer, R. L., in Applied Microbiology 9:538-541 (1961), using the ratio determined by the formula: Qa/QA+Qb/QB=Synergy Index (“SI”) wherein: • QA=concentration of compound A (first component) in ppm, acting alone, which produced an end point (MIC of Compound A). • Qa=concentration of compound A in ppm, in the mixture, which produced an end point. • QB=concentration of compound B (second component) in ppm, acting alone, which produced an end point (MIC of Compound B). • Qb=concentration of compound B in ppm, in the mixture, which produced an end point.
(§2) When the sum of Qa/QA and Qb/QB is greater than one, antagonism is indicated. […] The lower the SI, the greater the synergy shown by that particular mixture. The minimum inhibitory concentration (MIC) of a microbicide is the lowest concentration tested under a specific set of conditions that prevents the growth of added microorganisms.
(§3) Synergy tests were conducted using standard microtiter plate assays with media designed for optimal growth of the test microorganism. Minimal salt medium supplemented with 0.2% glucose and 0.1% yeast extract (M9GY medium) was used for testing bacteria; Potato Dextrose Broth (PDB medium) was used for testing yeast and mold. In this method, a wide range of combinations of microbicides was tested by conducting high resolution MIC assays in the presence of various concentrations of MI. High resolution MICs were determined by adding varying amounts of microbicide to one column of a microtitre plate and doing subsequent […] dilutions using an automated liquid handling system to obtain a series of endpoints ranging from 2 ppm to 10,000 ppm active ingredient. The synergy of the combinations of the present invention was determined against two bacteria, Staphylococcus aureus (S. aureus—ATCC #6538) or Pseudomonas aeruginosa (P. aeruginosa—ATCC #15442), a yeast, Candida albicans (C. albicans—ATCC 10231), and a mold, Aspergillus niger (A. niger—ATCC 16404). […]

C. albicans 10231 = assay: Synergy test, microtiter plate high resolution MIC assay, PDB medium; type: cell-based, Candida albicans
Method: as §1, §2, §3

[1] = test system: microorganisms isolated from contaminated paint; assay: Testing of synergistic combinations in paint (repeated inoculation); type: cell-based; conditions: paint pH 8.5-8.8
Method: A paint formulation having a pH of 8.5-8.8 was prepared from an acrylic binder, cellulosic thickener, kaolin, additives for formulation, and water. Fifty grams of the paint samples are inoculated repeatedly with microorganisms isolated from contaminated paint, with rising concentrations of inoculum. This treatment is carried out once a week. Six days after each inoculation, the surviving microorganisms are evaluated in each sample by applying onto nutrient media. These streak-outs are assessed after an incubation time of up to seven days (at 27±2° C. and 85-95% relative atmospheric humidity). An unpreserve sample of the system to be examined is used to check the susceptibility to the growth of microorganisms. Five inoculation cycles are carried out, thus leading to a test duration of six weeks. The rating scale for evaluation microbial growth is as follows: […]

P. aeruginosa 9027 = assay: Synergy test, microtiter plate high resolution MIC assay, M9GY medium; type: cell-based, Pseudomonas aeruginosa
A. niger 16404 = assay: Synergy test, microtiter plate high resolution MIC assay, PDB medium; type: cell-based, Aspergillus niger
Method: as §1, §2, §3

SMILES: Cn1sccc1=O [MI, 2-methyl-4-isothiazolin-3-one]
MIC (S. aureus 6538; Staphylococcus aureus, 6538, 24 h, read-out: QMI (MIC of MI acting alone)): 60 µg/mL | MIC (C. albicans 10231; Candida albicans, 10231, 48 h, read-out: QMI (MIC of MI acting alone)): 175 µg/mL | growth rating >5 inoc. ([1]; 150.0 ppm MI, 0.0 ppm DTBMA (100:0)): 2/1 | MIC (P. aeruginosa 9027; Pseudomonas aeruginosa, 9027, 72 h, read-out: QMI (MIC of MI acting alone)): 25 µg/mL | MIC (A. niger 16404; Aspergillus niger, 16404, 72 h, read-out: QMI (MIC of MI acting alone)): 400 µg/mL

MIC (S. aureus 6538; Staphylococcus aureus, 6538, M9GY, 24 hours, read-out: QMBI (MIC of MBI acting alone)): 8 µg/mL | MIC (C. albicans 10231; Candida albicans, 10231, PDB, 48 hours, read-out: QMBI (MIC of MBI acting alone)): 8 µg/mL | MIC (P. aeruginosa 9027; Pseudomonas aeruginosa, 9027, M9GY, 72 hours, read-out: QMBI (MIC of MBI acting alone)): 200 µg/mL | MIC (A. niger 16404; Aspergillus niger, 16404, PDB, 72 hours, read-out: QMBI (MIC of MBI acting alone)): 60 µg/mL
SMILES: Cn1sc2ccccc2c1=O [MBI, 2-methylbenzisothiazolone]

MIC (S. aureus 6538; Staphylococcus aureus, 6538, M9GY, 24 hours, read-out: QDTBMA (MIC of DTBMA acting alone)): 40 µg/mL | MIC (C. albicans 10231; Candida albicans, 10231, PDB, 48 hours, read-out: QDTBMA (MIC of DTBMA acting alone)): 40 µg/mL | MIC (P. aeruginosa 9027; Pseudomonas aeruginosa, 9027, M9GY, 72 hours, read-out: QDTBMA (MIC of DTBMA acting alone)): 1000 µg/mL | MIC (A. niger 16404; Aspergillus niger, 16404, PDB, 72 hours, read-out: QDTBMA (MIC of DTBMA acting alone)): 1500 µg/mL
SMILES: CNC(=O)c1ccccc1SSc1ccccc1C(=O)NC [DTBMA, 2,2′-dithiobis(N-methylbenzamide)]
growth rating >5 inoc. ([1]; 0.0 ppm MI, 152.0 ppm DTBMA (0:100)): 3 | growth rating >5 inoc. ([1]; 0.0 ppm MI, 228.0 ppm DTBMA (0:100)): 3
